Test results: patent publication US4866090A, “Novel HMG-CoA reductase inhibitors” (Merck & Co., Inc., priority 1988, dated 1989)

Biological target: T1, HMG-CoA reductase (Rattus norvegicus, UniProt P51639)
T1 sequence (P51639 1-887): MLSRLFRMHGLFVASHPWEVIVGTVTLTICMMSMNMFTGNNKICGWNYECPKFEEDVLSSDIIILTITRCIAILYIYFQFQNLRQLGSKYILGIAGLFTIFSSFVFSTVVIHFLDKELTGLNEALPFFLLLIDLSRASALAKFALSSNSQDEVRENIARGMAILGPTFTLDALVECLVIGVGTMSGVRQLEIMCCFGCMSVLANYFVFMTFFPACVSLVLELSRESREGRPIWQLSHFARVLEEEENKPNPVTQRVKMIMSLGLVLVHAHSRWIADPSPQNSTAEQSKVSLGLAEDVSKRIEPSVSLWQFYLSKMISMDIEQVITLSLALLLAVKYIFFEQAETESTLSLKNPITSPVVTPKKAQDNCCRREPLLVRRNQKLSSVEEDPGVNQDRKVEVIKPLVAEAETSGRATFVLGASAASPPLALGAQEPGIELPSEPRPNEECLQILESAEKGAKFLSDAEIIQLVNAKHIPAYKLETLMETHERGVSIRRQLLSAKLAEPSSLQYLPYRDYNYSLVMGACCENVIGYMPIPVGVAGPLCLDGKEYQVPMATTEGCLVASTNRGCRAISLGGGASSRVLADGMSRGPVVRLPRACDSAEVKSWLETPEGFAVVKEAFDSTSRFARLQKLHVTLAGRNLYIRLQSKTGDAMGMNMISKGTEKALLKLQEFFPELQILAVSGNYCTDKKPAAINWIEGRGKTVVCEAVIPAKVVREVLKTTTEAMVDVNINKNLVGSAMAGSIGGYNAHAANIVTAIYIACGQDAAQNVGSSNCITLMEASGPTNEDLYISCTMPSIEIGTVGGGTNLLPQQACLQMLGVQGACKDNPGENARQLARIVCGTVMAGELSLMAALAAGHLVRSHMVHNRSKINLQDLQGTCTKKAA
Experiment: intrinsic HMG-CoA reductase inhibition, in vitro protocol of J. Med. Chem., 28, p. 347-358 (1985)
Format: biochemical
Settings: IC50 of test compound compared with that of compactin determined simultaneously; compactin = 100
Experimental: The intrinsic HMG-CoA reductase inhibition activity of the claimed compounds is measured in the in vitro protocol published in J. Med. Chem., 28, p. 347-358 (1985).
For estimation of relative inhibitory potencies, compactin (i.e., mevastatin) was assigned a value of 100 and the IC50 value of the test compound was compared with that of compactin determined simultaneously in the published in vitro protocol.

Relative Potency | Structure (SMILES)
170 | CCC(C)(C)C(=O)O[C@H]1CC2(CC2)C[C@@H]2CC[C@H](C)[C@H](CC[C@@H]3C[C@@H](O)CC(=O)O3)[C@H]21 [1,1-dimethylpropyl --CH2 CH2 --]
111 | CCC(C)(C)C(=O)O[C@H]1CC(C)(C)C[C@@H]2CC[C@H](C)[C@H](CC[C@@H]3C[C@@H](O)CC(=O)O3)[C@H]21 [1,1-dimethylpropyl CH3 CH3, 6(R)-[2-(8(S)-(2,2-Dimethylbutyryloxy)-2(S),6,6-trimethyl-1,2,3,4,4a(S),5,6,7,8,8a(S)-decahydronaphthyl-1(S)]ethyl]-4(R) hydroxy-3,4,5,6-tetrahydro-2H pyran-2-one]
